Test results reported in patent publication US9695155B2, “Herbicidal substituted pyrimidinyloxy benzene compounds” (E. I. DU PONT DE NEMOURS AND COMPANY, priority 2013, dated 2017).

Assays:
ragweed = assay: Test A preemergence; type: in vivo, Ambrosia elatior
Outline: (§1)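 Greenhouse pot test, loam/sand soil. Formulation: non-phytotoxic solvent mix plus surfactant. Pre: directed spray onto soil after sowing. Post: plants at 1–2 leaf, 2–10 cm. Rated visually vs untreated controls at ~10 d, 0 (no effect) to 100 (complete control).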

Italian ryegrass [1] = assay: Test A preemergence; type: in vivo, Lolium multiflorum
Outline: as §1

Italian ryegrass [2] = assay: Test A postemergence; type: in vivo, Lolium multiflorum; details: 0 to 100 scale, 0 no effect, 100 complete control
Outline: as §1

giant foxtail = assay: Test A postemergence; type: in vivo, Setaria faberii; details: Setaria faberi, post-emergence, 240 h, 0 to 100 scale, 0 no effect, 100 complete control, read-out: Plant response rating, Foxtail, Giant
Outline: as §1

corn = assay: Test A postemergence; type: in vivo, Zea mays; details: Zea mays, post-emergence, 240 h, 0 to 100 scale, 0 no effect, 100 complete control
Outline: as §1

blackgrass = assay: Test A postemergence; type: in vivo, Alopecurus myosuroides; details: 0 to 100 scale, 0 no effect, 100 complete control
Outline: as §1

galium = assay: Test A postemergence; type: in vivo, Galium aparine; details: 0 to 100 scale, 0 no effect, 100 complete control
Outline: as §1

large (Lg) crabgrass = assay: Test C preemergence; type: in vivo, Digitaria sanguinalis; details: Digitaria sanguinalis, pre-emergence
Outline: (§2)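 Injury was assessed visually against controls 13 to 15 days after application, with 0 meaning no effect and 100 full control; missing entries are shown as a dash. Preemergence sprays hit seeded loam–sand soil, postemergence sprays hit 1- to 4-leaf plants.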

yellow nutsedge = assay: Test C preemergence; type: in vivo, Cyperus esculentus; details: Cyperus, pre-emergence
Outline: as §2

pigweed [3] = assay: Test C preemergence; type: in vivo, Amaranthus retroflexus; details: Amaranthus retroflexus, pre-emergence
Outline: as §2

waterhemp = assay: Test C preemergence; type: in vivo, Amaranthus rudis; details: Amaranthus tuberculatus, pre-emergence
Outline: as §2

Italian ryegrass [4] = assay: Test C postemergence; type: in vivo, Lolium multiflorum
Outline: as §2

pigweed [5] = assay: Test C postemergence; type: in vivo, Amaranthus retroflexus
Outline: as §2

kochia = assay: Test C postemergence; type: in vivo, Kochia scoparia; details: Bassia scoparia, post-emergence
Outline: as §2

velvetleaf = assay: Test C postemergence; type: in vivo, Abutilon theophrasti
Outline: as §2

chickweed = assay: Test C postemergence; type: in vivo, Stellaria media; details: Stellaria media, post-emergence
Outline: as §2

[6] = 31 g ai/ha, 0 to 100 scale where 0 is no effect and 100 is complete control, visual, approximately 10 days
[7] = 31 g ai/ha, postemergence, visual rating, scale 0 to 100 (0 no effect, 100 complete control), 13 to 15 days

N#Cc1cccc(Oc2ncc(Cl)cn2)c1-n1cc(C(F)F)cn1 [Compound 253, 3-(5-chloropyrimidin-2-yl)oxy-2-[4-(difluoromethyl)-1H-pyrazol-1-yl]benzonitrile]
Plant response rating, Ragweed (ragweed; [6]): 20
Ragweed plant response rating (0 to 100 scale) (ragweed; 125 g ai/ha): 80
Plant response rating, Ryegrass, Italian (Italian ryegrass [1]; [6]): 20
Ryegrass, Italian plant response rating (0 to 100 scale) (Italian ryegrass [1]; 125 g ai/ha): 20
Plant response rating, Ryegrass, Italian (Italian ryegrass [2]; 31 g ai/ha): 0
Plant response rating, Ryegrass, Italian (Italian ryegrass [2]; 125 g ai/ha): 50
pest or weed control at 31 g/ha (giant foxtail; 31 g ai/ha): 20%
pest or weed control at 125 g/ha (giant foxtail; 125 g ai/ha): 100%
Corn plant response rating (crop injury, 0 = no effect, 100 = complete kill) at 31 g/ha (corn; 31 g ai/ha): 20%
Corn plant response rating (crop injury, 0 = no effect, 100 = complete kill) at 125 g/ha (corn; 125 g ai/ha): 60%
Plant response rating, Blackgrass (blackgrass; 31 g ai/ha): 20
Plant response rating, Blackgrass (blackgrass; 125 g ai/ha): 80
Plant response rating, Galium (galium; 31 g ai/ha): 60
Plant response rating, Galium (galium; 125 g ai/ha): 100
pest or weed control at 16 g/ha (large (Lg) crabgrass; 16 g ai/ha, preemergence, scale 0 to 100 (0 no effect, 100 complete control), read-out: Crabgrass, Large plant response rating): 85%
pest or weed control at 125 g/ha (large (Lg) crabgrass; 125 g ai/ha, preemergence, scale 0 (no effect) to 100 (complete control), read-out: Crabgrass, Large plant response rating): 100%
pest or weed control at 62 g/ha (large (Lg) crabgrass; Preemergence, 62 g ai/ha, scale 0 to 100, 0 no effect, 100 complete control, read-out: Plant response rating, Crabgrass, Large): 100%
pest or weed control at 16 g/ha (yellow nutsedge; 16 g ai/ha, preemergence, scale 0 to 100 (0 no effect, 100 complete control), read-out: Nutsedge, Yellow plant response rating): 0%
pest or weed control at 125 g/ha (yellow nutsedge; 125 g ai/ha, preemergence, scale 0 (no effect) to 100 (complete control), read-out: Nutsedge, Yellow plant response rating): 65%
pest or weed control at 62 g/ha (yellow nutsedge; Preemergence, 62 g ai/ha, scale 0 to 100, 0 no effect, 100 complete control, read-out: Plant response rating, Nutsedge, Yellow): 20%
pest or weed control at 16 g/ha (pigweed [3]; 16 g ai/ha, preemergence, scale 0 to 100 (0 no effect, 100 complete control), read-out: Pigweed plant response rating): 100%
pest or weed control at 125 g/ha (pigweed [3]; 125 g ai/ha, preemergence, scale 0 (no effect) to 100 (complete control), read-out: Pigweed plant response rating): 100%
pest or weed control at 62 g/ha (pigweed [3]; Preemergence, 62 g ai/ha, scale 0 to 100, 0 no effect, 100 complete control, read-out: Plant response rating, Pigweed): 100%
pest or weed control at 16 g/ha (waterhemp; 16 g ai/ha, preemergence, scale 0 to 100 (0 no effect, 100 complete control), read-out: Waterhemp plant response rating): 100%
pest or weed control at 125 g/ha (waterhemp; 125 g ai/ha, preemergence, scale 0 (no effect) to 100 (complete control), read-out: Waterhemp plant response rating): 100%
pest or weed control at 62 g/ha (waterhemp; Preemergence, 62 g ai/ha, scale 0 to 100, 0 no effect, 100 complete control, read-out: Plant response rating, Waterhemp): 100%
Ryegrass, Italian plant response rating (Italian ryegrass [4]; [7]): 0
pest or weed control at 16 g/ha (Italian ryegrass [4]; Lolium multiflorum, post-emergence, 16 g ai/ha, postemergence, 0 is no effect, 100 is complete control, read-out: Plant response rating (0 to 100), Ryegrass, Italian): 0%
pest or weed control at 125 g/ha (Italian ryegrass [4]; Lolium multiflorum, post-emergence, 125 g ai/ha, postemergence, visual rating, scale 0 to 100 (0 no effect, 100 complete control), read-out: Plant response rating, Ryegrass, Italian): 0%
pest or weed control at 62 g/ha (Italian ryegrass [4]; Lolium multiflorum, post-emergence, Postemergence, 62 g ai/ha, scale 0 to 100 (0 no effect, 100 complete control), 13 to 15 days, read-out: Plant response rating, Ryegrass, Italian): 0%
Pigweed plant response rating (pigweed [5]; [7]): 85
pest or weed control at 16 g/ha (pigweed [5]; Amaranthus retroflexus, post-emergence, 16 g ai/ha, postemergence, 0 is no effect, 100 is complete control, read-out: Plant response rating (0 to 100), Pigweed): 85%
pest or weed control at 125 g/ha (pigweed [5]; Amaranthus retroflexus, post-emergence, 125 g ai/ha, postemergence, visual rating, scale 0 to 100 (0 no effect, 100 complete control), read-out: Plant response rating, Pigweed): 95%
pest or weed control at 62 g/ha (pigweed [5]; Amaranthus retroflexus, post-emergence, Postemergence, 62 g ai/ha, scale 0 to 100 (0 no effect, 100 complete control), 13 to 15 days, read-out: Plant response rating, Pigweed): 98%
pest or weed control at 16 g/ha (kochia; 16 g ai/ha, postemergence, 0 is no effect, 100 is complete control, read-out: Plant response rating (0 to 100), Kochia): 80%
pest or weed control at 31 g/ha (kochia; 31 g ai/ha, postemergence, visual rating, scale 0 to 100 (0 no effect, 100 complete control), 13 to 15 days, read-out: Kochia plant response rating): 98%
pest or weed control at 125 g/ha (kochia; 125 g ai/ha, postemergence, visual rating, scale 0 to 100 (0 no effect, 100 complete control), read-out: Plant response rating, Kochia): 100%
pest or weed control at 62 g/ha (kochia; Postemergence, 62 g ai/ha, scale 0 to 100 (0 no effect, 100 complete control), 13 to 15 days, read-out: Plant response rating, Kochia): 100%
Velvetleaf plant response rating (velvetleaf; [7]): 70
pest or weed control at 16 g/ha (velvetleaf; Abutilon theophrasti, post-emergence, 16 g ai/ha, postemergence, 0 is no effect, 100 is complete control, read-out: Plant response rating (0 to 100), Velvetleaf): 30%
pest or weed control at 125 g/ha (velvetleaf; Abutilon theophrasti, post-emergence, 125 g ai/ha, postemergence, visual rating, scale 0 to 100 (0 no effect, 100 complete control), read-out: Plant response rating, Velvetleaf): 85%
pest or weed control at 62 g/ha (velvetleaf; Abutilon theophrasti, post-emergence, Postemergence, 62 g ai/ha, scale 0 to 100 (0 no effect, 100 complete control), 13 to 15 days, read-out: Plant response rating, Velvetleaf): 70%
pest or weed control at 16 g/ha (chickweed; 16 g ai/ha, postemergence, 0 is no effect, 100 is complete control, read-out: Plant response rating (0 to 100), Chickweed): 60%
pest or weed control at 31 g/ha (chickweed; 31 g ai/ha, postemergence, visual rating, scale 0 to 100 (0 no effect, 100 complete control), 13 to 15 days, read-out: Chickweed plant response rating): 70%
pest or weed control at 125 g/ha (chickweed; 125 g ai/ha, postemergence, visual rating, scale 0 to 100 (0 no effect, 100 complete control), read-out: Plant response rating, Chickweed): 90%
pest or weed control at 62 g/ha (chickweed; Postemergence, 62 g ai/ha, scale 0 to 100 (0 no effect, 100 complete control), 13 to 15 days, read-out: Plant response rating, Chickweed): 90%
